Measured values: article PMC3151735 (ACS chemical biology, 2011)

Legend:
[1] = target: T1, Bcl-XL/Bak-BH3 (Homo sapiens, UniProt Q07817); conditions: proof-of-concept study; cited from earlier work
[2] = target: T1, Bcl-XL/Bak-BH3; assay type: binding
[3] = GST-Bcl-XL, fluorescein-labeled Bak-BH3 peptide

T1 sequence (Q07817 whole entry): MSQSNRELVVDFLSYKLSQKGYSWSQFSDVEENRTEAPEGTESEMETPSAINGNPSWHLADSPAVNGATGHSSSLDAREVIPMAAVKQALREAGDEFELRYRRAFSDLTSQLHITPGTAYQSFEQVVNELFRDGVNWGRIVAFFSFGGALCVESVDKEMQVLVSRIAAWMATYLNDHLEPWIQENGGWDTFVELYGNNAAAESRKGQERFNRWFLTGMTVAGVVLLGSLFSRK

| Ki [2, 3] [µM] | Structure (SMILES) | IC50 inhibitory constants [1] | IC50 [2, 3] [µM] | Percentage Inhibition ([2]; acylsulfonamide at 50 μM concentration, Bcl-XL/Bak-BH3 PPI disruption) [%] |
| --- | --- | --- | --- | --- |
| 11.5 ± 1.4 | CC1(C)CCN(c2ccc(C(=O)NS(=O)(=O)c3ccc4ccc(S(=O)(=O)NCCSc5ccccc5)cc4c3)cc2)CC1 [SZ7TA2] |  |  |  |
| 11.6 ± 1.6 | [N-]=[N+]=NS(=O)(=O)c1ccc(CN(CCSc2ccccc2)Cc2ccc(S(=O)(=O)NC(=O)c3ccccc3)cc2)cc1 [SZ9TA1] |  |  |  |
| 14.6 ± 1 | COc1cc(OC)cc(C(=O)NS(=O)(=O)c2ccc(CN(CCSc3ccccc3)Cc3ccc(S(=O)(=O)N=[N+]=[N-])cc3)cc2)c1 [SZ9TA5] |  |  |  |

| Structure (SMILES) | Ki [2, 3] [µM] | IC50 inhibitory constants [1] | IC50 [2, 3] [µM] | Percentage Inhibition ([2]; acylsulfonamide at 50 μM concentration, Bcl-XL/Bak-BH3 PPI disruption) [%] |
| --- | --- | --- | --- | --- |
| CC1(C)CCN(c2ccc(C(=O)NS(=O)(=O)c3ccc(NCCSc4ccccc4)c([N+](=O)[O-])c3)cc2)CC1 [SZ4TA2] | 0.0375 ± 0.005 | nM range | 0.106 ± 0.012 | 100 |
